Measurements from patent US11787780B2 (CORCEPT THERAPEUTICS INCORPORATED, priority 2020, dated 2023).

Key:
[1] = tested on: induction of TAT by dexamethasone in HepG2 cells; experiment: Hep G2 TAT assay (inhibition of dexamethasone-induced TAT); type: cell-based, human; settings: challenge of 100 nM dexamethasone, IC50 converted to Ki by Cheng and Prusoff equation
[2] = molecular target: glucocorticoid receptor (GR) recombinant ligand binding domain (LBD) (Homo sapiens (Human), UniProt P04150); experiment: GR binding fluorescence polarisation (FP) assay; settings: displacement of fluorescently tagged ligand
Method: Binding of test compounds to the glucocorticoid receptor (GR) is determined using a fluorescence polarisation (FP) assay utilising a recombinant ligand binding domain (LBD) of GR. The test compounds are assessed by their ability to displace a fluorescently tagged ligand and detection of the resulting decrease in fluorescence polarisation.

Chain of glucocorticoid receptor (GR) recombinant ligand binding domain (LBD) (P04150 524-758): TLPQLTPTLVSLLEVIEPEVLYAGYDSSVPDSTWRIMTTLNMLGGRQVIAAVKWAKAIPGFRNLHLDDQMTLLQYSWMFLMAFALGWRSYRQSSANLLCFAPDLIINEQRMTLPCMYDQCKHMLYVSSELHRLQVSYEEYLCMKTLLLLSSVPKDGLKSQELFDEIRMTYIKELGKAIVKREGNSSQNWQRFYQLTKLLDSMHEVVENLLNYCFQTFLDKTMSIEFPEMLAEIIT

SMILES | IC50 [2] [µM] | Ki [1] [µM]
Cc1cc2c(cnn2-c2ccc(F)cc2)cc1C1(Cc2cccnc2)CCN(S(C)(=O)=O)C1 (centres unmarked) [Example 148] | 0.024 | 0.331
Cc1cc2c(cnn2-c2ccc(F)cc2)cc1C1(Cc2ccccn2)CCN(S(=O)(=O)c2cnn(C)c2)C1 (centres unmarked) [Example 151] | 0.017 | 0.161
Cc1cc2c(cnn2-c2ccc(F)cc2)cc1C1(Cc2ccccc2)CCN(S(=O)(=O)c2cncs2)C1 (centres unmarked) [Example 154] | 0.269 | 0.014
CCCn1cc(S(=O)(=O)N2CCC(Cc3ccccc3)(c3cc4cnn(-c5ccc(F)cc5)c4cc3OC)C2)cn1 (centres unmarked) [Example 162] | 0.018 | 0.016
CC(C)c1cc2c(cnn2-c2ccc(F)cc2)cc1C1(Cc2ccccc2)CCN(S(C)(=O)=O)C1 (centres unmarked) [Example 163] | 0.106 | 0.06
CC(C)c1cc2c(cnn2-c2ccc(F)cc2)cc1C1(Cc2ccccc2)CCN(S(=O)(=O)c2cnn(C)c2)C1 (centres unmarked) [Example 164] | 0.189 | 0.089
CCCn1cc(S(=O)(=O)N2CCC(Cc3ccccc3)(c3cc4cnn(-c5ccc(F)cc5)c4cc3C(C)C)C2)cn1 (centres unmarked) [Example 165] | 0.072 | 0.037
Cc1cc2c(cnn2-c2ccc(F)cc2)cc1C1(Cc2ccc(C(F)(F)F)cn2)CCN(S(=O)(=O)c2cnn(C)c2)C1 (centres unmarked) [Example 169] | 0.217 | 0.159
Cc1cc2c(cnn2-c2ccc(F)cc2)cc1C1(Cc2ccc(C(F)(F)F)nc2)CCN(S(=O)(=O)c2cnn(C)c2)C1 (centres unmarked) [Example 170] | 0.123 | 0.104
Cc1cc2c(cnn2-c2ccc(F)cc2)cc1C1(Cc2ccc(C(F)F)nc2)CCN(S(=O)(=O)c2cnn(C)c2)C1 (centres unmarked) [Example 171] | 0.067 | 0.171
Cc1cc2c(cc1C1(Cc3ccccc3)CCN(S(=O)(=O)c3cnn(C)c3)C1)nnn2-c1ccc(F)cc1 (centres unmarked) [Example 172] | 0.058 | 0.083
Cn1cc(S(=O)(=O)N2CCC(Cc3ccccc3)(c3cc4cnn(-c5ccc(F)cc5)c4cc3F)C2)cn1 (centres unmarked) [Example 173] | 0.066 | 0.069
Cc1cc2c(cnn2-c2ccc(F)cc2)cc1C1(Cc2cccc(C(F)(F)F)c2)CCN(S(C)(=O)=O)C1 (centres unmarked) [Example 175] | 0.024 | 0.02
Cc1cc2c(cnn2-c2ccc(F)cc2)cc1C1(Cc2cccc(C(F)(F)F)c2)CCN(S(=O)(=O)c2cnn(C)c2)C1 (centres unmarked) [Example 176] | 0.06 | 0.033
Cc1cc2c(cnn2-c2ccc(F)cc2)cc1C1(Cc2ccc(C(F)(F)F)cc2)CCN(S(C)(=O)=O)C1 (centres unmarked) [Example 177] | 0.212 | 0.028
Cc1cc2c(cnn2-c2ccc(F)cc2)cc1C1(Cc2ccc(C(F)(F)F)cc2)CCN(S(=O)(=O)c2cnn(C)c2)C1 (centres unmarked) [Example 178] | 0.197 | 0.03
CC(=O)N1CCC(Cc2cccc(C(F)(F)F)c2)(c2cc3cnn(-c4ccc(F)cc4)c3cc2C)C1 (centres unmarked) [Example 192, 1-(3-(1-(4-fluorophenyl)-6-methyl-1H-indazol-5-yl)-3-(3-(trifluoromethyl)benzyl)pyrrolidin-1-yl)ethan-1-one] | 0.014 | 0.072
Cc1cc2c(cnn2-c2ccc(F)cc2)cc1C1(Cc2ccccc2)CCN(C(=O)c2ccccc2)C1 (centres unmarked) [Example 193, (3-benzyl-3-(1-(4-fluorophenyl)-6-methyl-1H-indazol-5-yl)pyrrolidin-1-yl)(phenyl)methanone] | 0.028 | 0.025
CC(=O)N1CCC(Cc2ccc(C(F)(F)F)cc2)(c2cc3cnn(-c4ccc(F)cc4)c3cc2C)C1 (centres unmarked) [Example 194, 1-(3-(1-(4-fluorophenyl)-6-methyl-1H-indazol-5-yl)-3-(4-(trifluoromethyl)benzyl)pyrrolidin-1-yl)ethan-1-one] | 0.109 | 0.102
Cc1cc2c(cnn2-c2ccc(F)cc2)cc1C1(Cc2ccccc2)CCN(S(=O)(=O)c2cnn(C)n2)C1 (centres unmarked) [Example 213, 5-(3-benzyl-1-((2-methyl-2H-1,2,3-triazol-4-yl)sulfonyl)pyrrolidin-3-yl)-1-(4-fluorophenyl)-6-methyl-1H-indazole] | 0.017 | 0.013
CCn1cc(S(=O)(=O)N2CCC(Cc3ccc(F)cc3)(c3cc4cnn(-c5ccc(F)cc5)c4cc3OC)C2)cn1 (centres unmarked) [Example 217, 5-(1-((1-ethyl-1H-pyrazol-4-yl)sulfonyl)-3-(4-fluorobenzyl)pyrrolidin-3-yl)-1-(4-fluorophenyl)-6-methoxy-1H-indazole] | 0.017 | 0.014
COc1cc2c(cnn2-c2ccc(F)cc2)cc1C1(Cc2ccccc2)CCN(S(=O)(=O)c2cnn(C)n2)C1 (centres unmarked) [Example 218, 5-(3-benzyl-1-((2-methyl-2H-1,2,3-triazol-4-yl)sulfonyl)pyrrolidin-3-yl)-1-(4-fluorophenyl)-6-methoxy-1H-indazole] | 0.014 | 0.01
COc1cc2c(cnn2-c2ccc(F)cc2)cc1C1(Cc2ccc(F)cc2)CCN(S(=O)(=O)c2cnn(C)n2)C1 (centres unmarked) [Example 219, 5-(3-(4-fluorobenzyl)-1-((2-methyl-2H-1,2,3-triazol-4-yl)sulfonyl)pyrrolidin-3-yl)-1-(4-fluorophenyl)-6-methoxy-1H-indazole] | 0.026 | 0.013
Cc1cc2c(cnn2-c2ccc(F)cc2)cc1C1(CC#CC2CC2)CCN(S(=O)(=O)c2cnn(C)c2)C1 (centres unmarked) [Example 221, 5-(3-(3-cyclopropylprop-2-yn-1-yl)-1-((1-methyl-1H-pyrazol-4-yl)sulfonyl)pyrrolidin-3-yl)-1-(4-fluorophenyl)-6-methyl-1H-indazole] | 0.056 | 0.045
Cn1cc(S(=O)(=O)N2CCC(Cc3ccccc3)(c3cc4cnn(-c5ccc(F)cc5)c4cc3Cl)C2)cn1 (centres unmarked) [Example 223, 5-(3-benzyl-1-((1-methyl-1H-pyrazol-4-yl)sulfonyl)pyrrolidin-3-yl)-6-chloro-1-(4-fluorophenyl)-1H-indazole] | 0.014 | 0.038
Cn1ncc(S(=O)(=O)N2CCC(Cc3ccccc3)(c3cc4cnn(-c5ccc(F)cc5)c4cc3Cl)C2)n1 (centres unmarked) [Example 226, 5-(3-benzyl-1-((2-methyl-2H-1,2,3-triazol-4-yl)sulfonyl)pyrrolidin-3-yl)-6-chloro-1-(4-fluorophenyl)-1H-indazole] | 0.021 | 0.013

The remaining molecules from weak to strong by IC50 [2], led by results:

IC50 [2] [µM] | SMILES | Ki [1] [µM]
0.014 | COc1cc2c(cnn2-c2ccc(F)cc2)cc1C1(Cc2ccccc2)CCN(S(=O)(=O)C2CC2)C1 (centres unmarked) [Example 166] | 0.026
0.013 | CCCn1cc(S(=O)(=O)N2CCC(Cc3cccnc3)(c3cc4cnn(-c5ccc(F)cc5)c4cc3C)C2)cn1 (centres unmarked) [Example 149] | 0.108
0.013 | Cc1cc2c(cnn2-c2ccc(F)cc2)cc1C1(Cc2ccccn2)CCN(S(C)(=O)=O)C1 (centres unmarked) [Example 150] | 0.169
0.013 | Cc1cc2c(cnn2-c2ccc(F)cc2)cc1C1(Cc2ccccc2)CCN(S(=O)(=O)C2CC2)C1 (centres unmarked) [Example 155] | 0.016
0.013 | COc1cc2c(cnn2-c2ccc(F)cc2)cc1C1(Cc2ccccc2)CCN(C(=O)c2cncs2)C1 (centres unmarked) [Example 231, (3-benzyl-3-(1-(4-fluorophenyl)-6-methoxy-1H-indazol-5-yl)pyrrolidin-1-yl)(thiazol-5-yl)methanone] | 0.048
0.011 | Cc1cc2c(cnn2-c2ccc(F)cc2)cc1C1(Cc2ccccc2)CCN(S(=O)(=O)c2cnn(C)c2)C1 (centres unmarked) [Example 153] | 0.026
0.011 | Cc1cc2c(cnn2-c2ccc(F)cc2)cc1C1(Cc2ccccc2)CCN(S(=O)(=O)C2CCOCC2)C1 (centres unmarked) [Example 156] | 0.036
0.011 | COc1cc2c(cnn2-c2ccc(F)cc2)cc1C1(Cc2ccccc2)CCN(S(=O)(=O)c2cnn(C)c2)C1 (centres unmarked) [Example 161] | 0.039
0.011 | CCCn1cc(S(=O)(=O)N2CCC(Cc3nccs3)(c3cc4cnn(-c5ccc(F)cc5)c4cc3C)C2)cn1 (centres unmarked) [Example 189] | 0.091
0.011 | CS(=O)(=O)N1CCC(Cc2ccccc2)(c2cc3cnn(-c4ccc(F)cc4)c3cc2Cl)C1 (centres unmarked) [Example 222, 5-(3-benzyl-1-(methylsulfonyl)pyrrolidin-3-yl)-6-chloro-1-(4-fluorophenyl)-1H-indazole] | 0.039
0.01 | Cc1cc2c(cnn2-c2ccc(F)cc2)cc1C1(Cc2ccccc2)CCN(S(=O)(=O)c2ccn(C)n2)C1 (centres unmarked) [Example 215, 5-(3-benzyl-1-((1-methyl-1H-pyrazol-3-yl)sulfonyl)pyrrolidin-3-yl)-1-(4-fluorophenyl)-6-methyl-1H-indazole] | 0.01
0.009 | Cc1cc2c(cnn2-c2ccc(F)cc2)cc1C1(Cc2ccc(F)cc2)CCN(S(C)(=O)=O)C1 (centres unmarked) [Example 174] | 0.028
0.008 | CCC1(c2cc3cnn(-c4ccc(F)cc4)c3cc2C)CCN(S(C)(=O)=O)C1 (centres unmarked) [Example 167] | 0.256
0.006 | CCCn1cc(S(=O)(=O)N2CCC(CC)(c3cc4cnn(-c5ccc(F)cc5)c4cc3C)C2)cn1 (centres unmarked) [Example 168] | 0.067
0.006 | CC(=O)N1CCC(Cc2ccc(F)cc2)(c2cc3cnn(-c4ccc(F)cc4)c3cc2C)C1 (centres unmarked) [Example 191, 1-(3-(4-fluorobenzyl)-3-(1-(4-fluorophenyl)-6-methyl-1H-indazol-5-yl)pyrrolidin-1-yl)ethan-1-one] | 0.061
0.005 | COc1cc2c(cnn2-c2ccc(F)cc2)cc1C1(Cc2ccccc2)CCN(S(C)(=O)=O)C1 (centres unmarked) [Example 160] | 0.024
0.005 | CC(=O)N1CCC(Cc2ccccc2)(c2cc3cnn(-c4ccc(F)cc4)c3cc2C)C1 (centres unmarked) [Example 190, 1-(3-benzyl-3-(1-(4-fluorophenyl)-6-methyl-1H-indazol-5-yl)pyrrolidin-1-yl)ethan-1-one] | 0.055
